Data published in publication PMC11003925, “Antimicrobial activity and properties of de novo design of short synthetic lipopeptides” (Folia Microbiologica, 2024).
≈ marks a conversion by molar mass, not a printed value. Where two headings read alike, the source gives them in different places. Residues, ends and D or L forms follow the SMILES beside them. *: point of attachment. Lithocholoyl = C[C@H](CCC(=O)*)[C@H]1CC[C@H]2[C@@H]3CC[C@@H]4C[C@H](O)CC[C@]4(C)[C@H]3CC[C@]12C

Experiments:
M. luteus DBM 3053 = type: cell-based, Micrococcus luteus; settings: for MIC: DBM 3053, 24 h; for IC50: DBM 3053, 25 h
Procedure: (§1) A Bioscreen C automated microbiology growth curve analysis system (Growth Curves, Piscataway, NJ, USA) was used for the quantitative determination of antimicrobial activity (minimal inhibitory concentration, MIC) of PAL/LCA-peptides. Optical density was measured with a wide bandpass filter (wavelength range 420–580 nm) at regular intervals and temperatures. This assay was performed in a special microtiter plate (10 × 10 wells) that allowed the simultaneous testing of a large number of samples against several microorganisms. The total testing volume was 100 µL, obtained by mixing 10 µL of microbial culture with OD600 equal to 0.1 with growth medium and a solution of the tested compounds. The positive controls were vancomycin and tetracycline for Bacillus subtilis (100 µg/mL) for Gram-positive bacteria, kanamycin, and tetracycline for Acinetobacter baumannii (100 µg/mL) for Gram-negative bacteria, and clotrimazole or amphotericin (100 µg/mL) for fungi. The maximal concentration of tested lipoproteins was 1 mg/mL. A pure growth medium was used as the negative control. The measurement period was 25 h. The lowest concentration with a 100% inhibition effect for 24 h of incubation was chosen as the MIC. The antibacterial activity of each compound was expressed as the minimum inhibitory concentration MIC (MIC is the lowest concentration of the compound needed to inhibit the growth of bacterial cells) and IC50 (IC50 is the concentration of the compound needed to inhibit the growth of bacterial cells by 50%).

Staph. aureus MRSA1 [1] = type: cell-based, Staphylococcus aureus; settings: 2xMIC, 37 °C
Procedure: This assay was used to determine how quick the effect of PAL/LCA-peptides is on bacteria, as well as whether the activity of these compounds is dependent on the presence of active bacterial metabolism (Kamysz et al. [2007]). The bacterial cultures were incubated overnight at 37 °C in Mueller–Hinton’s broth 2 or potassium phosphate buffer (0.1 M, pH 7). Cultures were diluted to OD600 equal to 0.1 and divided into 2 samples, and the final volume of each sample was 1 mL; after that, they were centrifuged (5000 × g, 10 min) to collect bacteria. […] The samples were incubated at 37 °C. At specific time intervals, samples of bacterial suspension were taken, diluted, and spread on Petri dishes with Mueller–Hinton’s agar to count the number of surviving cells as colony-forming units (CFU). The whole experiment lasted 24 h.

E. coli DBM 3001 = type: cell-based; settings: DBM 3001, 25 h
Procedure: as §1

E. faecalis DBM 3075 = type: cell-based; settings: for IC50: DBM 3075, 25 h
Procedure: as §1

Staph. aureus MRSA1 [2] = type: cell-based, Staphylococcus aureus; settings: for MIC: 24 h; for IC50: 25 h
Procedure: as §1

Staph. aureus DBM 3002 = type: cell-based, Staphylococcus aureus; settings: for MIC: 24 h; for IC50: 25 h
Procedure: as §1

bacterial membrane = experiment: Membrane disruption (released lactate dehydrogenase activity); type: cell-based, Staphylococcus aureus; settings: 1 h incubation at 37 °C, LDH kit, triplets
Procedure: The disruption of the microbial membrane was followed by the detection of lactate dehydrogenase activity released from the intracellular space using a Cytotoxicity Detection Kit (LDH) from Roche (Korzeniewski and Callewaert [1983]; Macurkova et al. [2014]) after 1 h incubation at 37 °C with the PAL/LCA-peptide. The culture supernatant was collected and incubated with the reaction mixture from the kit. In the first step, NAD^+ is reduced to NADH + H^+ by the LDH-catalyzed conversion of lactate to pyruvate. In the second step, the catalyst (diaphorase) transfers H/H^+ from NADH + H^+ to the tetrazolium salt 2-(4-iodophenyl)-3-(4-nitrophenyl)-5-phenyl-2H-tetrazolium chloride (INT), which is reduced to formazan. The formazan dye formed is red and water-soluble and gives a broad absorption maximum at 500 nm. An increase in the amount of dead or plasma membrane-damaged cells results in an increase in the LDH activity in the cell culture supernatant.
To determine the degree of damage to the cell membrane (%) by the tested substances, averages of absorbances (triplets) were calculated from the measured values for the samples, controls, and pure medium. Subsequently, the absorbance average for the clean medium (background) was subtracted from all averages obtained in this way. The degree of damage to the cell membrane by the tested substances was expressed as follows: membranedamage%=((AVZ-∅ANK)/(∅APK-ANK))∙100 ∅AVZ⋯averageabsorbanceofsample ∅ANK⋯averageabsorbanceofnegativecontrol ∅APK⋯averageabsorbanceofpositivecontrol

C. tropicalis DBM 2166 = type: cell-based, Candida tropicalis; settings: for IC50: DBM 2166, 25 h; for MIC: first value of cell 'MIC / IC50', 100% inhibition for 24 h
Procedure: as §1

Staph. aureus = experiment: Transmission electron microscopy of treated bacteria; type: cell-based, Staphylococcus aureus; settings: 1 to 4 h incubation; media with (Mueller–Hinton broth 2) and without nutrients (potassium phosphate buffer)
Procedure: Pictures of damaged bacterial cells were obtained by transmission electron microscopy after 1 to 4 h of incubation. Cells of the Gram-positive bacterial strains were not stained. A JEOL JEM-1010 transmission electron microscope (JEOL, Tokyo, Japan) equipped with a MegaView III CCD camera was used for visualization, and evaluation was performed with the program for image analysis AnalySIS software v. 2.0 (Soft Imaging Systems). The samples were plated on a carbon-coated electron microscopic grid and observed with an accelerating voltage of 80 kV.

Ps. aeruginosa DBM 3081 = type: cell-based, Pseudomonas aeruginosa; settings: 25 h
Procedure: as §1

HEK293T = experiment: Cytotoxicity assay (xCELLigence impedance); type: cell-based, human; settings: 24 h exposure
Procedure: (§2) Experiments were carried out using an xCELLigence RTCA DP Instrument (Roche Diagnostics GmbH, Mannheim, Germany) which was placed into an incubator (37 °C and 5% CO2). Cell proliferation and cytotoxicity experiments were performed using modified 16-well plates (E-plate, Roche Diagnostics GmbH, Mannheim, Germany). Microelectrodes were attached to the bottom of the wells for the impedance-based detection of attachment, spreading, and proliferation of the cells (Stoddart [2011]). This system monitors cellular events in real time without the incorporation of labels by measuring electrical impedance across an interdigitated microelectrode integrated into the bottom of this special tissue culture plate. This impedance measurement improves upon conventional endpoint assays and provides quantitative information about the biological status of the cells, including cell number, adhesion, viability, and morphology. Ninety microliters of cultivation medium was used for the blank sample, and subsequently, 100 µL of HepG2 or HEK293T cell suspension (7 × 10^5 cells/mL) was added and placed into the incubator (37 °C, 95% humidity, 5% CO2). […] Chrysophsin-3 at a concentration of 100 µg/mL was used as a positive control and solvent (deionized water) as a negative control. Subsequent incubation was performed for at least an additional 24 h. The result of the measurement was viability curves. After the measurement, percentages of tissue culture growth inhibition were calculated for all the tested substances, as follows: %inhibition=(1-(ΔϕCIsample)/(ΔϕCIcontrol))·100
(§3) Δ∅CIsample … the difference between the first and last average CI (cell index) values of the tissue culture in the presence of the tested sample.
(§4) Δ∅CIcontrol … the difference between the first and last average CI values of the tissue culture itself.

HepG2 = experiment: Cytotoxicity assay (xCELLigence impedance); type: cell-based, human; settings: for % inhibition: 24 h exposure
Procedure: as §2, §3, §4

B. subtilis DBM 3006 = type: cell-based, Bacillus subtilis; settings: for MIC: DBM 3006, 24 h; for IC50: DBM 3006, 25 h
Procedure: as §1

A. baumannii DBM 3183 = experiment: microbe, parasite or virus in culture; type: cell-based, Acinetobacter baumannii; settings: DBM 3183, 25 h
Procedure: as §1

plasmid pGreen 0029 = experiment: DNA binding assay (gel retardation); settings: 50 ng DNA, 1 h room temperature, 1% agarose gel
Procedure: This assay was performed as described by Park et al. ([1998]), with a few modifications. […] The reaction mixture was incubated at room temperature for 1 h. Subsequently, 4 µL of native loading buffer (10% Ficol, 10 mM Tris–HCl (pH 7.5), 50 mM EDTA, 0.25% bromophenol blue) was added. An aliquot was applied to 1% agarose gel electrophoresis in 0.5xTris borate-EDTA buffer. Circular plasmid DNA was isolated from (Luria–Bertani medium with AMPI in final concentration 100 µg/mL) bacterial strain E. coli DH5α / pBluescriptII KS- that had been grown overnight, and linearization was performed overnight by enzymatic reaction using restriction endonuclease EcoRV at 37 °C. The evaluation was performed by visualizing the DNA with the intercalation dye Midori Green Advanced DNA Stain under UV light. Reduced electrophoretic mobility compared to the control is considered to be evidence of peptide binding to DNA.
According to the previous results, we decided to clarify one of the possible molecular interaction mechanisms, the ability of the studied lipopeptides to bind microbial plasmid DNA. Based on the assumption that pore formation is only one of the influencing factors, which arose from previous results, the effect on one of the possible intracellular targets, DNA, was determined. This determination was carried out on isolated plasmid DNA, specifically on two plasmids, pGreen 0029 and pBluescript II KS- in circular and linearized form.

`CC(C)C[C@H](NC(=O)CC[C@@H](C)[C@H]1CC[C@H]2[C@@H]3CC[C@@H]4C[C@H](O)CC[C@]4(C)[C@H]3CC[C@]12C)C(=O)N[C@H](C(=O)N[C@@H](CCCCN)C(=O)N[C@@H](CCCNC(=N)N)C(=O)N[C@@H](C)C(=O)NCC(N)=O)C(C)C` [SHP-1.3, LCA-LVKRAG-NH2] (Lithocholoyl-LVKRAG-NH2) was tested, and the MIC (M. luteus DBM 3053) was 5.5 µg/mL (≈ 5.5 µM), the IC50 (M. luteus DBM 3053) was 10.0 µg/mL (≈ 10 µM) and the “bacteria killed within half an hour” value (Staph. aureus MRSA1 [1]; about 10^7 cells, SHP-1.2 only in medium with nutrients, SHP-1.3 in both media) was 100%. The “killing activity (%)” value (Staph. aureus MRSA1 [1]; KP (potassium phosphate buffer, without nutrients)) was 100 ± 18%, the “killing activity (%)” value (Staph. aureus MRSA1 [1]; MHB (Mueller–Hinton broth II, with nutrients)) was 100 ± 12% and the IC50 (E. coli DBM 3001) was “N / > 100.0 µg/mL”. It also gave an MIC (E. faecalis DBM 3075; DBM 3075, 24 h) of 71.5 µg/mL (≈ 71.5 µM), an IC50 (E. faecalis DBM 3075) of 100.0 µg/mL (≈ 100 µM) and an MIC (Staph. aureus MRSA1 [2]) of 30.6 µg/mL (≈ 30.6 µM). The IC50 (Staph. aureus MRSA1 [2]) was 50.0 µg/mL (≈ 50 µM), the MIC (Staph. aureus DBM 3002) was 33.0 µg/mL (≈ 33 µM) and the IC50 (Staph. aureus DBM 3002) was 50.0 µg/mL (≈ 50 µM). The “Membrane damage (%)” value (bacterial membrane; KP (potassium phosphate buffer)) was 30 ± 5%, the “Membrane damage (%)” value (bacterial membrane; MHB (Mueller–Hinton broth II)) was 0 ± 5% and the IC50 (C. tropicalis DBM 2166) was 30.0 µg/mL (≈ 30 µM). For the same compound, the MIC (C. tropicalis DBM 2166) was 10.3 µg/mL (≈ 10.3 µM), the “morphological effect on bacterial cells (TEM)” value (Staph. aureus) was “damaging cellular envelopes” and the IC50 (Ps. aeruginosa DBM 3081) was “N / > 100.0 µg/mL”. The “% inhibition” value (HEK293T; c 50 µg/mL) was 63.8 ± 9.6%, the “% inhibition” value (HEK293T; c 100 µg/mL) was 72.0 ± 10.8% and the “% inhibition” value (HEK293T; c 200 µg/mL) was 84.1 ± 12.6%. The “% inhibition” value (HepG2; c 50 µg/mL) was 57.4 ± 8.6%, the “% inhibition” value (HepG2; c 100 µg/mL) was 92.8 ± 13.9% and the “% inhibition” value (HepG2; c 200 µg/mL) was 97.8 ± 14.7%. The “efficiency on HepG2 cells” value (HepG2; concentration not given) was 97%, the MIC (B. subtilis DBM 3006) was 31.5 µg/mL (≈ 31.5 µM) and the IC50 (B. subtilis DBM 3006) was 40.0 µg/mL (≈ 40 µM).
For `CC(C)C[C@H](NC(=O)[C@@H](NC(=O)CNC(=O)CC[C@@H](C)[C@H]1CC[C@H]2[C@@H]3CC[C@@H]4C[C@H](O)CC[C@]4(C)[C@H]3CC[C@]12C)C(C)C)C(=O)N[C@@H](CCCCN)C(=O)N[C@@H](CCCNC(=N)N)C(=O)N[C@@H](C)C(N)=O` [SHP-3.3, LCA-GVLKRA-NH2] (Lithocholoyl-GVLKRA-NH2), the MIC (M. luteus DBM 3053) was 1.5 µg/mL (≈ 1.5 µM), the IC50 (M. luteus DBM 3053) was 5.0 µg/mL (≈ 5 µM) and the IC50 (A. baumannii DBM 3183) was “N / > 100.0 µg/mL”. For the same compound, the IC50 (E. coli DBM 3001) was “N / > 100.0 µg/mL”, the IC50 (E. faecalis DBM 3075) was “N / > 100.0 µg/mL” and the MIC (Staph. aureus MRSA1 [2]) was 25.2 µg/mL (≈ 25.2 µM). The IC50 (Staph. aureus MRSA1 [2]) was 50.0 µg/mL (≈ 50 µM), the MIC (Staph. aureus DBM 3002) was 28.8 µg/mL (≈ 28.8 µM) and the IC50 (Staph. aureus DBM 3002) was 50.0 µg/mL (≈ 50 µM). For the same compound, the IC50 (C. tropicalis DBM 2166) was 30.0 µg/mL (≈ 30 µM), the MIC (C. tropicalis DBM 2166) was 10.0 µg/mL (≈ 10 µM) and the “morphological effect on bacterial cells (TEM)” value (Staph. aureus) was “damaging cellular envelopes”. The IC50 (Ps. aeruginosa DBM 3081) was “N / > 100.0 µg/mL”, the “weight ratio lipopeptide:DNA influencing electrophoretic mobility” value (plasmid pGreen 0029; circular plasmid) was 1.0 and the “weight ratio lipopeptide:DNA influencing electrophoretic mobility” value (plasmid pGreen 0029; linearized plasmid) was 10.0. For the same compound, the “% inhibition” value (HEK293T; c 50 µg/mL) was 7.8 ± 1.2%, the “% inhibition” value (HEK293T; c 100 µg/mL) was 28.5 ± 4.3% and the “% inhibition” value (HEK293T; c 200 µg/mL) was 88.2 ± 13.2%. For the same compound, the “% inhibition” value (HepG2; c 50 µg/mL) was 4.3 ± 0.6%, the “% inhibition” value (HepG2; c 100 µg/mL) was 35.6 ± 5.3% and the MIC (B. subtilis DBM 3006) was 34.3 µg/mL (≈ 34.3 µM). It also gave an IC50 (B. subtilis DBM 3006) of 50.0 µg/mL (≈ 50 µM).
